Experimental data as given in US12281057B2 (VERTEX PHARMACEUTICALS INCORPORATED, priority 2017, dated 2025).

What follows are compounds tested against truncated form of human NaV 1.8 with full channel activity (Homo sapiens, UniProt Q9Y5Y9) (assay: E-VIPR Assay Method A for detecting and measuring Nav inhibition (HEK cells, membrane potential FRET dyes, electrical stimulation)). Details: HEK cells expressing human NaV 1.8, HS (human serum) in compound loading buffer, 11 point dose response, top dose 3 μM, Table 20A, read-out: Nav 1.8 MedChem Optical Assay EVIPR Assay Method A HS IC50.
Chain of truncated form of human NaV 1.8 with full channel activity (Q9Y5Y9 126-1722 limits assumed): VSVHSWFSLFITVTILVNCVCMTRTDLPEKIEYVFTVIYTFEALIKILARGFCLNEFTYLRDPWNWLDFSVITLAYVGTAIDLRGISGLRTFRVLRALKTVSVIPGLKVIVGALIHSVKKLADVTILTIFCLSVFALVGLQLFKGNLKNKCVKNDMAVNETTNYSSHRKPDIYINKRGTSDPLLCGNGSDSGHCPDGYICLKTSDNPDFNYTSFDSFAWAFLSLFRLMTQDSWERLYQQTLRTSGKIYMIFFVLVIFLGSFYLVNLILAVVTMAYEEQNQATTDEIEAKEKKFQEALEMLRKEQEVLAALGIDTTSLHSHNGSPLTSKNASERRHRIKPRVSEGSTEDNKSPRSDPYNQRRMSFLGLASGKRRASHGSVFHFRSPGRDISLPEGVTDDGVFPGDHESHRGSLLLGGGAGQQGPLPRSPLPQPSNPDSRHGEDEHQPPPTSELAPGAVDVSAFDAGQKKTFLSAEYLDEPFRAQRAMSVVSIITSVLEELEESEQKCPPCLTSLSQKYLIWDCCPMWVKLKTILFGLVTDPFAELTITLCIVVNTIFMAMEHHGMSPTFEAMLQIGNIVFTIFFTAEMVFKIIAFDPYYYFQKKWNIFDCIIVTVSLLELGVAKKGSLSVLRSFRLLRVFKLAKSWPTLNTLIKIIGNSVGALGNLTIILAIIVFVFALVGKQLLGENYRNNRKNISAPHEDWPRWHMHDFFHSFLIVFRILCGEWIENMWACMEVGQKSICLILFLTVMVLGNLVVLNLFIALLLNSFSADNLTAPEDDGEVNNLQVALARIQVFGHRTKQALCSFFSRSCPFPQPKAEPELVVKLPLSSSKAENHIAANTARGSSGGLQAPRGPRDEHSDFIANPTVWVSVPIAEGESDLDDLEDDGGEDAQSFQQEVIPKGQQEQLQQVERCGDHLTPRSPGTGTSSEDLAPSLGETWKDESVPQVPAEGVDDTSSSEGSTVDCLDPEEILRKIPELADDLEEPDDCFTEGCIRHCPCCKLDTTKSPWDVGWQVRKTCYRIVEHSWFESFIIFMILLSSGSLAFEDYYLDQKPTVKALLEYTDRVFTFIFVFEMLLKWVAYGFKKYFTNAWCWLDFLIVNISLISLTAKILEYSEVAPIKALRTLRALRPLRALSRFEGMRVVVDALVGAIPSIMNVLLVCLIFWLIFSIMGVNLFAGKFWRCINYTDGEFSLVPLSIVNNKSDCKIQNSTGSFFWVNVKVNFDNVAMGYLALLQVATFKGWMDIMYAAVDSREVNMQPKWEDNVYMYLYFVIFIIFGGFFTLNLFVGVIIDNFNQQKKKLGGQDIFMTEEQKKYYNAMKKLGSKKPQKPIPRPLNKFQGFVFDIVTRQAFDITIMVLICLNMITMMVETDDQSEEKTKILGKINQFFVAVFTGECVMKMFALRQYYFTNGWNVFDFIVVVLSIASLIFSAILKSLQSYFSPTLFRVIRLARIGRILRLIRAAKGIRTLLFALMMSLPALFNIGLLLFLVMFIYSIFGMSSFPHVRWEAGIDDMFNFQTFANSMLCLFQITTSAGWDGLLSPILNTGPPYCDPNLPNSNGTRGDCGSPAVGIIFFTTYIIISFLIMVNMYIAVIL
Assay type: cell-based
Summary of the method: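 HEK cells expressing truncated human NaV1.8, loaded with CC2-DMPE/DiSBAC6(3) FRET dyes, incubated 30 min at room temp with compound (0.625% DMSO), then electrically stimulated (1.25 A biphasic, 10 Hz, 10 s). Inhibition from 460/580 nm ratio Rf/Ri, normalised to positive and DMSO controls.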

IC50 [nM] | SMILES
1600 | COc1cc(OC(F)(F)F)ccc1Oc1cncc(F)c1C(=O)Nc1ccc(F)c(C(N)=O)n1 [Compound 164, 3-Fluoro-6-[[3-fluoro-5-[2-methoxy-4-(trifluoromethoxy)phenoxy]pyridine-4-carbonyl]amino]pyridine-2-carboxamide]
260 | COc1ccc(Oc2ccc(C(F)(F)F)c(F)c2C(=O)Nc2ccc(F)c(C(N)=O)c2)cn1 [Compound 56, N-(3-carbamoyl-4-fluoro-phenyl)-2-fluoro-6-[(6-methoxy-3-pyridyl)oxy]-3-(trifluoromethyl)benzamide]
9 | [2H]c1cc(F)c(C(N)=O)cc1NC(=O)c1c(Oc2c([2H])cc(OC(F)(F)F)c([2H])c2[2H])ccc(C(F)(F)F)c1F [Compound 213, N-(5-Carbamoyl-2-deuterio-4-fluoro-phenyl)-2-fluoro-6-[2,3,6-trideuterio-4-(trifluoromethoxy)phenoxy]-3-(trifluoromethyl)benzamide]
155 | COc1cc(OC(F)(F)F)ccc1Oc1cc(C(F)(F)F)cnc1C(=O)Nc1cccc(C(N)=O)c1 [Compound 31, N-(3-Carbamoylphenyl)-3-[2-methoxy-4-(trifluoromethoxy)phenoxy]-5-(trifluoromethyl)pyridine-2-carboxamide]
